# Patent US20050004007A1, “Promotion of adoptosis in cancer cells by co-administration of cyclin dependent kinase inhibitiors and cellular differentiation agents” (priority 2000, published 2005)
# Experiments:
# Format in all cases: cell-based, human
# U937 cells [1] = assay: loss of mitochondrial membrane potential (DiOC6 uptake, flow cytometry); details: for percentage of cells displaying a loss of Δψm: 100 nM FP, 1 mM SB, 12 or 24 hr
# Protocol: Assessment of mitochondrial membrane potential. At designated times, 1 ml aliquots of cells (2×10^5) were harvested and incubated with 40 nM DiOC6 for 15 minutes at 25° C. as previously described [Zamzami et al 1995]or at 37° C. Samples were analyzed using a Becton Dickinson FACScan flow cytometer (excitation λ=488 nm; emission λ=525 nm). […] Data acquisition and analysis was performed using […] Software (Becton Dickinson, Mansfield, Mass.).
# U937 cells [2] = assay: CD11b surface differentiation marker expression (flow cytometry); details: 1 mM SB, 100 nM FP, 48 h
# Protocol: Differentiation studies. Expression of the monocytic differentiation marker, CD11b, was monitored by direct immunofluorescence staining and flow cytometric analysis as previously described [Freemerman et al. 1997]. Following drug treatment, suspension and adherent cells were enumerated by a Coulter Counter and 2×10^6 cells were pelleted by centrifugation. The supernatant was aspirated and the cells were resuspended in 300 μl of ice-cold PBS. Two 100 μl aliquots from each sample were then combined with either phycoerythrin-1 (10 μl) or the IgG control. Samples were incubated for 20 min at 4° C. and diluted in PBS (1 ml). Sample data were collected using a Becton Dickinson FACScan flow cytometer and analyzed with Verity Winlist Software (Verity; Topsham, Me.). […] U937 cells were transfected with a full-length p21^WAF1/CIP1 promoter (base pairs 1-2326) as described by Chinery et al. [Chinery et al. 1997] utilizing electroporation (Eppendorf Multiporator, 620V, 60 μs) in hypoosmolar buffer. In each experiment, pSV-βgal (Promega), containing the β-galactosidase gene under the control of the constitutively active SV40 promoter and enhancer, was co-transfected with the luciferase reporter at a ratio of 1:5 (w/w) to normalize for transfection efficiency. The cells were incubated overnight in complete media and treated with 10 nM PMA, 100 nM FP, or 10 nM PMA/100 nM FP for 3 or 6 h. At indicated times, cells were washed in serum-free media, resuspended in 0.25M Tris-HCl pH 7.8, lysed by rapid freeze-thaw, centrifuged and the supernatant frozen at −70° C. Lysates (20 μL) were mixed with luciferase assay reagent (100 μL) and monitored for 20 seconds in a luminometer (Monolight 2010). For β-galactosidase activity, lysates (50 μL) were mixed in triplicate with an equal volume of […] assay buffer (2×) in a 96-well plate and incubated overnight. The reaction was terminated by addition of NaCO3 and absorbance was measured at 405 nm in a Vmax plate reader (Molecular Devices). Activity was determined by comparison to a standard curve. […]
# p21WAF1/CIP1 = assay: Western analysis of p21WAF1/CIP1 expression in U937 cells; details: for p21WAF1/CIP1 levels: 1 mM SB, 100 nM FP, 1-24 hr
# Protocol: (§1) Western analysis. Equal quantities of protein (15 μg/condition for MAPK, 40 μg/condition for cytochrome c, or 25 μg/condition) were separated by SDS-PAGE [underphosporylated pRB (7.5%), poly(ADP-ribose)polymerase or PARP (8.0%), p44/p42 MAPK (10%), p21, p27, procaspase 3 (12%), and cytochrome c (15%)] and electroblotted onto nitrocellulose. Western analysis of p44/p42 MAPK protein was performed according to the manufacturer's instructions (New England Biolabs); otherwise, studies were performed as previously described [Wang et al, 1998]. Briefly, U937 cells (5×10^6) were pelleted by centrifugation, resuspended in 50 μl PBS, lysed by the addition of 2× Laemmli buffer and boiled for 5 min. Proteins were quantified with Coomassie protein assay reagent. Blots were blocked in PBS-T/5% milk, washed twice with PBS-T, and incubated overnight at 4° C. with the appropriate primary antibody. The blots were washed with PBS-T and incubated with a horseradish-peroxidase conjugated secondary antibody diluted appropriately in PBS-T/5% mill. Following incubation, blots were developed by enhanced chemiluminescence exposure to Kodak X-OMAT film (Eastman Kodak Co., Rochester, N.Y.) and reprobed with antibodies directed against actin to control for equal loading of protein.
# (§2) Alternatively, whole cell-pellets were washed twice in PBS, resuspended in PBS, and lysed by the addition of I volume of loading buffer. Lysates were boiled for 10 min, centrifuged at 12,800 g for 5 min and quantified using Coomassie protein assay reagent (Pierce, Rockfold, Ill.). 25 μg of total proteins per point were separated by SDS-PAGE and electro-blotted to nitrocellulose. The blots were blocked in 5% non-fat milk in PBS-T and probed for 1 h with the appropriate dilution of primary antibody. Blots were washed 3×10 min in PBS-T and then incubated with a 1:2000 dilution of peroxidase-conjugated secondary antibody for 1 h at room temperature. Blots were again washed 3×10 min in PBS-T and then developed by enhanced chemiluminesence. Where indicated, blots were stripped and re-probed with antibodies directed against actin.
# (§3) Primary antibodies for both p21^WAF1/CIP1 and p27^KIP1 (Transduction Laboratories, Lexington, Ky.) were used in a 1:1000 dilution; PARP (1:1000; Oncogene Research Products, Cambridge, Mass.); pro-caspase 3 (1:1000; Transduction Laboratories); cytochrome c (1:2000; Pharmingen); bcl-2 (1:2000; DAKO, Denmark); bax (1:1000; Santa Cruz Biotechnology, Inc., Santa Cruz, Calif.); bid (1:1000; Cell Signaling, Beverly, Mass.); XIAP (1:1000; Cell Signaling); Mcl-1 (1:1000; Pharmingen); bak (1:1000; Calbiochem); c-Myc (1:1000; Pharmingen, San Diego, Calif.); actin (1:2000; Sigma Chemicals, St. Louis, Mo.); cyclins-D1, -A and -E (1:1000; Pharmingen); pRb, underP-pRb, pRb-CDK2 and pRb-CDK4 (all 1:1000; Pharmingen); Ac-H3 and Ac-H4 (both 1:1000; Upstate Biotechnology, Lake Placid, N.Y.); E2F-1 (Upstate Biotechnology). Secondary antibodies conjugated to horseradish peroxidase were obtained from Kirkegaard and Perry Laboratories, Inc. (Gaithersburg, Md.). Coomassie protein assay reagent was purchased from Pierce (Rockford, Ill.), and an enhanced chemiluminescence kit was obtained from New England Nuclear (Boston, Mass.). The pan-caspase inhibitor BOC-D-fmk and the caspase 8 inhibitor Z-IETD-fmk were purchased from Enzyme System Products (Livermore, Calif.) All other chemicals or reagents were purchased from Sigma.
# pRb = assay: Western analysis of underphosphorylated pRb in U937 cells; details: for levels of underphosphorylated pRb: FP 100 nM, SB 1 mM, 12 or 24 hr
# Protocol: as §1, §2, §3
# Bcl-2 = assay: Western analysis of Bcl-2 cleavage in U937 cells; details: SB 1 mM, FP 100 nM, 12 and 24 hr
# Protocol: as §2, with “actin. […]” for “actin.”
# cyclin D1 = assay: Western analysis of cyclin D1 in U937 cells
# Protocol: as §2
# as §3, with “The pan-caspase inhibitor BOC-D-fmk and the caspase 8 inhibitor Z-IETD-fmk were purchased from Enzyme System Products (Livermore, Calif.) All other chemicals or reagents were purchased from Sigma.” left out
Compound,percentage of cells displaying a loss of Δψm (U937 cells [1]),expression of the differentiation marker CD11b (U937 cells [2]),p21WAF1/CIP1 levels (p21WAF1/CIP1),levels of underphosphorylated pRb (pRb),cleavage of Bcl-2 (rapidly migrating species) (Bcl-2),"cyclin D1 protein (cyclin D1; SB 1 mM 24 hours, FP and SB 12 hours)",loss of mitochondrial membrane potential (Δψm) (U937 cells [1]; 1 and 1.5 μM SAHA and FP (100 nM)),"loss of mitochondrial membrane potential (Δψm) (U937 cells [1]; FP 100 nM, PMA 10 nM, 4-8 h exposure)","p21WAF1/CIP1 expression (p21WAF1/CIP1; 10 nM PMA, FP 50-100 nM, 24 h)","full-length underphosphorylated pRb (pRb; 10 nM PMA, FP 50, 80 or 100 nM, 24 h)",FP concentration at which reduction in cyclin D1 levels was first observed (cyclin D1; 12 and 24 hours treatment),FP concentration at which reduction in cyclin D1 levels was virtually complete (cyclin D1; 12 and 24 hours treatment)
"CCCC(=O)[O-].[Na+] [SB, sodium butyrate]",no effect,increased expression of the differentiation marker CD11b,time-dependent increase,substantial increase,faintly discerned,moderate decrease,,,,,,
"CN1CC[C@H](c2c(O)cc(O)c3c(=O)cc(-c4ccccc4Cl)oc23)[C@H](O)C1 [FP, Flavopiridol]",modest increase,not accompanied by an increase in CD11b expression,did not modify,did not affect,faintly discerned,,no effect,reductions were noted,no effect,minimal effect,100 nM,300 nM
